Our source for the GI50 and TGI values is PubChem BioAssay (NCI).

Usually GI50 stands for the concentration that inhibits growth by half. Usually TGI stands for the concentration giving total growth inhibition.

Test systems include SK-MEL-5 melanoma; HOP-92 NSCLC; MOLT-4 leukemia; HT29 colon; IGROV1 ovarian; SK-MEL-2 melanoma; 786-0 renal; A549 NSCLC; DU-145 prostate; HL-60(TB) leukemia.
What all share (experiment): DTP human tumour cell line panel, 48 h

Structures are written as SMILES. Several values for one entry are separate records, joined by “and”; a condition that tells them apart may be missing. Equal entries are not always repeated.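 96-well plates; 48 h exposure; 5 concentrations. Endpoints by linear interpolation between flanking doses. Not reached: highest tested concentration assigned. GI50 is the concentration that inhibits growth by half. TGI denotes the concentration required for complete inhibition of growth.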

Take `C=C1CC[C@@H]2[C@](C)(COC(C)=O)[C@H](OC(C)=O)CC[C@@]2(C)[C@@H]1CC(Nc1ccc(S(=O)(=O)Nc2cc(C)on2)cc1)C1=CCOC1=O` (some centres not stated): the GI50 with SK-MEL-5 melanoma was 2.11 µM; with HOP-92 NSCLC it was 3.07 µM; with MOLT-4 leukemia, 2.12 µM; in the assay with HT29 colon, 1.58 µM; with IGROV1 ovarian, 2.36 µM; in the assay with SK-MEL-2 melanoma it was 2.04 µM. For the same compound, the GI50 in the assay with 786-0 renal was 1.96 µM; with A549 NSCLC, 4.75 µM; in the assay on DU-145 prostate it was 2.43 µM; in the assay with HL-60(TB) leukemia it was 1.39 µM. For the same compound, the TGI in the assay with SK-MEL-5 melanoma came out at 4.65 µM; in the assay on HOP-92 NSCLC, 8 µM; with MOLT-4 leukemia it was 6.39 µM; in the assay on HT29 colon it was 3.09 µM; with IGROV1 ovarian, 6.51 µM; with SK-MEL-2 melanoma, 4.4 µM. The TGI worked out at 3.66 µM in the assay on 786-0 renal, 15.4 µM with A549 NSCLC, 6.53 µM in the assay with DU-145 prostate and 3.69 µM in the assay on HL-60(TB) leukemia.
Consider `Cc1cc2nc3ccc(=[N+](C)C)cc-3sc2cc1N`, for which the GI50 is 0.145 µM and 0.284 µM in the assay with SK-MEL-5 melanoma; 1.44 µM and 1.76 µM with HOP-92 NSCLC; 0.237 µM and 0.363 µM with MOLT-4 leukemia; 2.09 µM and 2.87 µM with HT29 colon; 1.53 µM and 1.81 µM in the assay with IGROV1 ovarian; 1.31 µM and 2.26 µM in the assay on SK-MEL-2 melanoma. For the same compound, the GI50 with 786-0 renal is 1.82 µM and 0.76 µM; with A549 NSCLC, 0.336 µM and 0.381 µM; in the assay on DU-145 prostate it was 1.19 µM and 1.69 µM; with HL-60(TB) leukemia it was 0.214 µM and 0.181 µM. Also, the TGI was 0.324 µM and 1.81 µM and 1.33 µM in the assay on SK-MEL-5 melanoma; 10.1 µM and 38.3 µM and 11.1 µM in the assay with HOP-92 NSCLC; 5.45 µM and 22.8 µM and 9.44 µM in the assay with HT29 colon; 5.18 µM and 20.2 µM and 5.32 µM with IGROV1 ovarian; 5.62 µM and 17 µM and 8.27 µM with SK-MEL-2 melanoma; 10.1 µM and 17.7 µM and 4.3 µM in the assay with 786-0 renal. Also, the TGI in the assay on A549 NSCLC is 1.75 µM and 13.9 µM and 11.2 µM.
For `Nc1ccccc1NC(=O)c1ccc(CN2CCC/C(=C\c3ccccn3)C2=O)cc1`, the GI50 was 1.46 µM with SK-MEL-5 melanoma; 0.143 µM in the assay with HOP-92 NSCLC; 1.26 µM in the assay with MOLT-4 leukemia; 0.443 µM with HT29 colon; 1.1 µM in the assay on IGROV1 ovarian; 1.57 µM in the assay with SK-MEL-2 melanoma. Further, the GI50 with 786-0 renal was 2.71 µM; in the assay on A549 NSCLC, 2.41 µM; in the assay on DU-145 prostate it was 3.15 µM; in the assay with HL-60(TB) leukemia it was 0.467 µM. In addition, the TGI in the assay on SK-MEL-5 melanoma is 3.79 µM; in the assay with HOP-92 NSCLC it was 2.98 µM; with MOLT-4 leukemia, more than 100 µM; with HT29 colon, more than 100 µM; in the assay with IGROV1 ovarian it was more than 100 µM; in the assay on SK-MEL-2 melanoma it was 11.8 µM. Further, the TGI is 30.2 µM with 786-0 renal, more than 100 µM in the assay on A549 NSCLC, more than 100 µM with DU-145 prostate and 6.48 µM in the assay with HL-60(TB) leukemia.
Take `C/C(=N\NC(=S)N1CCN(C2CCCCCC2)CC1)c1ccccn1`: the GI50 was 0.0204 µM with SK-MEL-5 melanoma; 0.00788 µM in the assay with HOP-92 NSCLC; less than 0.001 µM in the assay on MOLT-4 leukemia; less than 0.001 µM in the assay with IGROV1 ovarian; 2.02 µM in the assay with SK-MEL-2 melanoma; 0.0121 µM in the assay with 786-0 renal. The GI50 in the assay on HL-60(TB) leukemia is less than 0.001 µM. The TGI in the assay on SK-MEL-5 melanoma is 8.38 µM and 1.01 µM; with HOP-92 NSCLC it was 3.05 µM; with MOLT-4 leukemia it was 1.52 µM and 3.72 µM; in the assay on HT29 colon, 1.84 µM; in the assay with IGROV1 ovarian, 3.7 µM; with SK-MEL-2 melanoma, 9.66 µM and 3.16 µM. The TGI in the assay with 786-0 renal is 3.58 µM and 1.95 µM; in the assay with A549 NSCLC it was 1.86 µM; with DU-145 prostate, 2.44 µM.
With `O=C1C(Nc2ccc(Br)cc2)=C(I)C(=O)c2ncccc21`, the GI50 is 0.803 µM in the assay on SK-MEL-5 melanoma; 0.815 µM with HOP-92 NSCLC; 0.912 µM with MOLT-4 leukemia; 1.83 µM in the assay with HT29 colon; 0.678 µM in the assay on IGROV1 ovarian; 1.27 µM in the assay with SK-MEL-2 melanoma. Further, the GI50 with 786-0 renal was 0.905 µM; with A549 NSCLC, 2.24 µM; in the assay with DU-145 prostate it was 1.14 µM; with HL-60(TB) leukemia, 0.96 µM. The TGI in the assay with SK-MEL-5 melanoma stood at 1.51 µM; with HOP-92 NSCLC, 1.61 µM; with MOLT-4 leukemia it was 3.48 µM; in the assay on HT29 colon it was 9.19 µM; with IGROV1 ovarian it was 1.36 µM; in the assay with SK-MEL-2 melanoma it was 4.77 µM. For the same compound, the TGI is 2.21 µM with 786-0 renal, 8.18 µM in the assay on A549 NSCLC, 4.26 µM in the assay with DU-145 prostate and 2.07 µM in the assay on HL-60(TB) leukemia.
`C=C1COC(O)(C2OCOC(C3CC(=O)NC(=O)C3)C2O)C1C` (configuration not stated): the 50% growth inhibitory concentration (GI50) in the assay on SK-MEL-5 melanoma is 0.00166 µM; with HOP-92 NSCLC, 0.00585 µM and 0.0117 µM; in the assay on MOLT-4 leukemia it was 0.00124 µM; in the assay on IGROV1 ovarian it was 0.00383 µM and 0.0166 µM; in the assay on SK-MEL-2 melanoma it was 0.00243 µM; in the assay on 786-0 renal it was 0.00362 µM. Moreover, the GI50 is 0.00282 µM in the assay on A549 NSCLC, 0.0125 µM with DU-145 prostate and 0.00217 µM in the assay on HL-60(TB) leukemia. For the same compound, the TGI is 0.00459 µM and 0.00385 µM with SK-MEL-5 melanoma; 0.0354 µM and 0.045 µM in the assay on HOP-92 NSCLC; 0.00804 µM and 0.00522 µM in the assay on MOLT-4 leukemia; 0.0207 µM and 0.0511 µM in the assay on HT29 colon; 0.0442 µM and 0.0773 µM in the assay on IGROV1 ovarian; 0.00927 µM and 0.0446 µM in the assay with SK-MEL-2 melanoma. The TGI is 0.0532 µM in the assay on 786-0 renal; 0.0303 µM and 0.0326 µM in the assay with A549 NSCLC; 0.0616 µM with DU-145 prostate; 0.0123 µM in the assay on HL-60(TB) leukemia.
